Structures can show the parent of a compound that is named as a salt.
Columns and labels:
[1] = tested on: coronary arteries (Langendorff's isolated heart); assay: Langendorff's isolated heart preparation (dilation of coronary arteries)
Protocol: In addition to their utility in the treatment of hypertension, the compounds of formula (I) are useful in the treatment of the symptoms of angina pectoris by virtue of their ability to dilate coronary arteries. Their activity was measured using the "Langendorff's isolated heart" preparation. This test has been described in "Pharmacological Experiments on Isolated Preparations". Staff of the Department of Pharmacology, University of Edinbourgh, 2nd Ed., Churchill Livingstone, N.Y., 1970, pp. 112-119. The test compounds were administered at concentrations of 30.0, 10.0, 3.0, 1.0, 0.3, 0.1, 0.03, and 0.01 micromolar (10^-6 molar).

[2] = tested on: spontaneously hypertensive rats; assay: Spontaneously Hypertensive Rat (SHR) test, arterial pressure; assay type: in vivo, adult spontaneously hypertensive rats (Charles Rivers); conditions: SH rats, fall of mean arterial pressure
Protocol: The activity of compounds of formula (I) for the treatment of hypertension was determined using the Spontaneously Hypertensive Rat (SHR) test as described below. In this test, the arterial pressure of adult spontaneously hypertensive rats (Charles Rivers) is monitored directly via an aortic cannula. The SH rats are anesthetized with an inhalation anesthetic (ether). The left carotid artery is isolated and cannulated. The tip of the cannula is advanced to the aorta and the cannula is exteriorized behind the neck at the level of the scapula. Animals are placed in individual cages and allowed to recover from the anesthetic and are kept unrestrained. The arterial cannula is connected to the pressure transducer which is attached to the recorder. The test compounds are administered to at least 3 rats at doses selected in the range of 0.1 to 100 mg/kg of body weight by intraperitoneal (i.p.) or oral (p.o.) routes of administration. The arterial pressure and heart rate are monitored for a minimum of 24 hr. A test compound is considered to be active as an antihypertensive agent if the mean arterial pressure (MAP) indicates a fall of >15 mm of Hg. Each animal serves as its own control.

Mongrel dogs = assay: Myocardial Oxygen Supply and Demand (dog) Test; assay type: in vivo; conditions: i.v., anesthetized dog; for increasing coronary blood flow: p<0.05
Protocol: The activity of compounds of formula (I) in the treatment of angina was also determined using the Myocardial Oxygen Supply and Demand (dog) Test as described below.
Mongrel dogs of either sex weighing between 8.4 and 12.3 kg were used for this study. These dogs were obtained from Haycock Farm, Quakertown, PA. They were anesthetized with pentabarbitol Na and ventilated with a Harvard positive pressure respirator (Model 607 , Dover, MA) to maintain their blood pH and gaseous tension within physiological ranges. Heparin-filled polyethylene catheters were implanted into the right femoral artery (PE-260) and the right atrium (PE-180) for the measurement of their respective pressures. The right femoral vein was cannulated with a heparin-filled polyethylene catheter (PE-200) for drug infusion. A thoracotomy was then performed via the left fifth intercostal space. The left circumflex coronary artery was isolated from surrounding fascia and an electromagnetic flow transducer (I.D.=2.0 mm, Gould Statham Inc. Oxnard, CA) placed around it for the measurement of coronary blood flow. A Delmed intravenous catheter (18.5 ga.×8 in., Canton, MA) was inserted into the coronary sinus via a puncture wound made by an 18 ga. needle for coronary venous effluent blood sampling. Arterial oxygen samples were taken from the femoral arterial catheters. Total content of oxygen in whole blood was measured by the Lex-02-Con-TL (Lexington Instruments Corp., Waltham, MA). Myocardial oxygen consumption was estimated by the product of the difference in arterial and coronary sinus oxygen content and coronary blood flow through the left circumflex coronary artery. These techniques have been used extensively to study the effects of calcium channel blockers on myocardial oxygen supply and demand in various animal models. References for these techniques include Jolly, S. R. and Gross, G. J. Effect of FR 7534, A New Calcium Antagonist, On Myocardial Oxygen Demand. Euro. J. Pharm. 54: 289-293, (1979); Ono, H., Ohara, N. and Hashimoto, K. Effect of an Anti-Anginal Drug, Perhexiline, on Myocardial Oxygen Consumption in Anesthetized Open-Chest Dogs Compared With Verapamil and Glyceryl Trinitrate. Jap. Cir. J. 46: 559-567 (1982); and Vater, W. and Schlossman, K. Effects of Nifedipine on the Hemodynamics and Oxygen Consumption of the Heart in Animal Experiments, in: Jatene and Lichtlen, 3rd International Adalat Symposium: New Therapy of Ischemic Heart Disease (Exerpta Medica, Amsterdam, Oxford), p. 33, (1975). Arterial blood pH and gaseous tension were measured by a Corning pH/blood gas analyzer (Model 168, Medfield, MA). Arterial and atrial pressures were measured by connecting their respective catheters to Statham strain-gauge manometers (P23D, Gould Inc., Oxnard, CA). Gould-Statham electromagnetic blood flowmeters (Model SP2202, Oxnard, CA) were used to measure coronary blood flow. Lead II of the EKG was monitored continuously through subcutaneous insertion of stainless steel needle electrodes on the body surface of the animal. The EKG was recorded by a Grass oscillograph (Model 7D, Quincy, MA) with an EKG-pulse pre-amplifier (Model 7P6C) and a Polygraph D.C. driver amplifier (Model 7DAG). All the other recorded variables, i.e., arterial pressure, right atrial pressure and coronary blood flow were recorded by the Grass oscillograph. Coronary vascular resistance was calculated as the quotient of the difference in mean pressure (arterial-right atrial) and left circumflex blood flow. […]

Molecule	EC30 [1]	SHR δMAP ([2]; dose 30 (mg/kg), po)	SHR δMAP ([2]; dose 10 (mg/kg), ip)	other results
CC1(COCC(CN(Cc2ccccc2)c2c(Cl)cccc2Cl)N2CCCC2)CCCCC1.Cl (stereo not drawn) [Example 1e, N-(2,6-Dichlorophenyl)-beta-[[(1-methylcyclohexyl)methoxy]methyl]-N-(phenylmethyl)-1-pyrrolidineethanamine hydrochloride(1:1)]	4.6 nM	-60 mm of Hg	–	decreased arterial pressure (Mongrel dogs; 0.25 mg/kg): 8%; increasing coronary blood flow (Mongrel dogs; 0.25 mg/kg): 80%; decreased arterial pressure (Mongrel dogs; 0.50 mg/kg): 15%; increasing coronary blood flow (Mongrel dogs; 0.50 mg/kg): 221%; myocardial oxygen supply/demand ratio (Mongrel dogs; 0.25 and 0.50 mg/kg): markedly increased
COc1cccc(N(Cc2ccccc2)CC(COCC(C)(C)C)N2CCCC2)c1.O=C(O)/C=C/C(=O)O (stereo not drawn) [Example 2d, beta-[(2,2-Dimethylpropoxy)methyl]-N-(3-methoxyphenyl)-N-(phenylmethyl)-1-pyrrolidineethanamine (E)-2-Butenedioate (1:1)]	29 nM	-29 mm of Hg	–	–
CC(C)(C)COCC(CN(Cc1ccccc1)c1ccccc1Cl)N1CCCC1.Cl (stereo not drawn) [Example 3b, N-(2-Chlorophenyl)-beta-[(2,2-dimethylpropoxy)methyl]-N-(phenylmethyl)-1-pyrrolidineethanamine Hydrochloride (1:1)]	27 nM	-6 mm of Hg	-52 mm of Hg	–
CN(C)c1ccc(CN(CC(COCC(C)(C)C)N2CCCC2)c2c(Cl)cccc2Cl)cc1 (stereo not drawn) [Example 4c, N-(2,6-Dichlorophenyl)-N-[[4-(dimethylamino)phenyl]methyl]beta-[(2,2-dimethylpropoxy)methyl]-1-pyrrolidineethanamine Hydrochloride Hydrate (7:7:1)]	1.6 nM	-14 mm of Hg	-23 mm of Hg	–
COc1ccc(CN(CC(COCC(C)(C)C)N2CCCC2)c2c(Cl)cccc2Cl)cc1OC.Cl (stereo not drawn) [Example 5, N-(2,6-Dichlorophenyl)-N-[(3,4-dimethoxyphenyl)methyl]-beta-[(2,2-dimethylpropoxy)methyl]-1-pyrrolidineethanamine-Hydrochloride (1:1)]	1 nM	-15 mm of Hg	–	–
CC(C)(C)COCC(CN(Cc1ccccc1)c1c(Cl)cccc1Cl)N1CCCC1 (stereo not drawn) [Example 6, N-(2,6-Dichlorophenyl)-beta-[(2,2-dimethylpropoxy)methyl]-N-(phenylmethyl)-1-pyrrolidineethanamine Hydrochloride (1:1)]	7.3 nM	-33 mm of Hg	–	–
CC(C)(C)COCC(CN(Cc1ccncc1)c1c(Cl)cccc1Cl)N1CCCC1.Cl.Cl (stereo not drawn) [Example 7, N-(2,6-Dichlorophenyl)-beta-[(2,2-dimethylpropoxy)methyl]-N-(4-pyridinylmethyl)-1-pyrrolidineethanamine Dihydrochloride]	28 nM	-37 mm of Hg	–	–
Cc1cccc(C)c1N(Cc1ccccc1)CC(COCC(C)(C)C)N1CCCC1.Cl (stereo not drawn) [Example 8b, N-(2,6-Dimethylphenyl)-beta-[(2,2-dimethylpropoxy)methyl]-N-(phenylmethyl)-1-pyrrolidineethanamine Hydrochloride]	2.8 nM	-21 mm of Hg	–	–
CC(C)(C)COCC(CN(Cc1ccccc1)c1cccc(C(F)(F)F)c1)N1CCCC1.Cl (stereo not drawn) [Example 9b, beta-[(2,2-Dimethylpropoxy)methyl]-N-(phenylmethyl)-N-[3-(trifluoromethyl)phenyl]-1-pyrrolidineethanamine Hydrochloride]	20 nM	-28 mm of Hg	–	–
CC(C)(C)COCC(CN(Cc1ccccc1)c1ccccc1)N1CCCC1 (stereo not drawn) [Example 10, β-[(2,2-Dimethylpropoxy)methyl]-N-phenyl-N-(phenylmethyl)-1-pyrrolidineethanamine (E)-2-Butenedioate (1:1)]	5 nM	-13 mm of Hg	-28 mm of Hg	–
CC(C)(C)COCC(CN(CC1CCCCC1)c1c(Cl)cccc1Cl)N1CCCC1 (stereo not drawn) [Example 12, N-(Cyclohexylmethyl)-N-(2,6-dichlorophenyl)-beta-[(2,2-dimethylpropoxy)methyl]-1-pyrrolidineethanamine (E)-2-Butenedioate Hydrate (20:25:2)]	3 nM	-25 mm of Hg	–	–
CC(C)(C)OCC(CN(Cc1ccccc1)c1c(Cl)cccc1Cl)N1CCCC1 (stereo not drawn) [Example 13, N-(2,6-Dichlorophenyl)-beta[ (1,1-dimethylethoxy)methyl]-N-(phenylmethyl)-1-pyrrolidineethanamine Hydrochloride (1:1)]	4.3 nM	-20 mm of Hg	-74 mm of Hg	–
N-(2,6-Dichlorophenyl)-N-(phenylmethyl)-alpha-[[(tricyclo-[3.3.1.1^3,7]dec-1-yl)methoxy]methyl]-1-pyrrolidineethanamine Hydrochloride (1:1) [Example 11c]	–	-41 mm of Hg	–	Langendorff EC30 [1]: .010 10^-6 M

Source: patent US4727072A, “3-alkoxy-2-aminopropylamines compositions and use as cardiovascular agents” (McNeilab, Inc., priority 1986, dated 1988)
